Test [1] addresses T1, NR1aNR2A NMDA receptor (NR2A subunit) (Rattus norvegicus, UniProt P35439+Q00959). As to the kind of experiment: whole-cell patch clamp, inhibition of EC30 NMDA current. Particulars: read-out: % inhibition at 100 μM. Type of test: cell-based. For orientation: The patch-clamp technique gives a direct electrical read-out from membranes.
In test [2] the target is T2, NR1aNR2B NMDA receptor (NR2B subunit) (Rattus norvegicus, UniProt P35439+Q00960). The description is as above. Type of test: cell-based. Particulars: read-out: % inhibition at 100 μM.
For test [3], the system named is NMDA receptor (native, hippocampal neurons). Format: cell-based, Mus musculus.
Test [4] deals with T2, NR1aNR2B NMDA receptor (NR2B subunit). As to the kind of experiment: whole-cell patch clamp, agonist concentration-response. Format: cell-based.
The target of test [5] is T1, NR1aNR2A NMDA receptor (NR2A subunit). Described as above. Type of test: cell-based.

As usually defined, the inhibition is the share of the control response that was lost under treatment. The EC50 is the concentration needed to bring the measured effect to its halfway point. A lower EC50 goes with an effect from little substance.

T2 sequence (Q00960 27-1482, other chains not shown): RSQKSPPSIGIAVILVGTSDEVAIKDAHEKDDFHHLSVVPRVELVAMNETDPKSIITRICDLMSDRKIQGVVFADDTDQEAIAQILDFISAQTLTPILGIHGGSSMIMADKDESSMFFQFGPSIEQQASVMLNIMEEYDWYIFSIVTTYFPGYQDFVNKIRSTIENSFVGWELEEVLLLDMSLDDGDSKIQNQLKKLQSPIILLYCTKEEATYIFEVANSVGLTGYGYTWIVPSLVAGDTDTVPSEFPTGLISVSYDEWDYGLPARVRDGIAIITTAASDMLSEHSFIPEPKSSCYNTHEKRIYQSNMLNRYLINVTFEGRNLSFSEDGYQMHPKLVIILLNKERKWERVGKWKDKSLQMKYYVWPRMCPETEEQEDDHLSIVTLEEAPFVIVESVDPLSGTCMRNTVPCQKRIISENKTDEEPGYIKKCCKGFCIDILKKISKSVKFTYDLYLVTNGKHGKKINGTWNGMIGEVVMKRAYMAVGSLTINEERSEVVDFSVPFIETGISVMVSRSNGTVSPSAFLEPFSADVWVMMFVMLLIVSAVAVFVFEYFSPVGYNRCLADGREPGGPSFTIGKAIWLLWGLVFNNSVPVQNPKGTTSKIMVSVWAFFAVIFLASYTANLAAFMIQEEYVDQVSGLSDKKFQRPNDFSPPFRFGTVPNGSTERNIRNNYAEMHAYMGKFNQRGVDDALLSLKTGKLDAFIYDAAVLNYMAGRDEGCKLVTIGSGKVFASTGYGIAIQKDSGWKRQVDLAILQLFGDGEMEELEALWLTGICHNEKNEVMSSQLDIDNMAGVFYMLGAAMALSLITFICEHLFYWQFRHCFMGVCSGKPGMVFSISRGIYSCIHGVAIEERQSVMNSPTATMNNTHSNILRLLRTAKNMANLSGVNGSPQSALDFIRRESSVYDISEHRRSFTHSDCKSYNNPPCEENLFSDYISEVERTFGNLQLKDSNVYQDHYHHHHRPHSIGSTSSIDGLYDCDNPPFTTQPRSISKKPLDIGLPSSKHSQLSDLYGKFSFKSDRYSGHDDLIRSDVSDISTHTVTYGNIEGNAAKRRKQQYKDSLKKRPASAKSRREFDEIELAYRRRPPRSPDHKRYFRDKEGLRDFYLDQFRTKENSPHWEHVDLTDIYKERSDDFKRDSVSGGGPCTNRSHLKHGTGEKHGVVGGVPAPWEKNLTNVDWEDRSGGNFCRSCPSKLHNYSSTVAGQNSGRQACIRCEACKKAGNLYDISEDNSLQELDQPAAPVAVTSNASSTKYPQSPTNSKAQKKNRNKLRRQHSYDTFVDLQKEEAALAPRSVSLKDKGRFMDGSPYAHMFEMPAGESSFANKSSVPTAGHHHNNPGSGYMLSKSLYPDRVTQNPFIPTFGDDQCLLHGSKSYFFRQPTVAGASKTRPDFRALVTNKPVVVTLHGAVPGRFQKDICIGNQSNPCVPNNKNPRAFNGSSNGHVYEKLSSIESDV
T1 sequence (Q00959 23-1464, other chains not shown): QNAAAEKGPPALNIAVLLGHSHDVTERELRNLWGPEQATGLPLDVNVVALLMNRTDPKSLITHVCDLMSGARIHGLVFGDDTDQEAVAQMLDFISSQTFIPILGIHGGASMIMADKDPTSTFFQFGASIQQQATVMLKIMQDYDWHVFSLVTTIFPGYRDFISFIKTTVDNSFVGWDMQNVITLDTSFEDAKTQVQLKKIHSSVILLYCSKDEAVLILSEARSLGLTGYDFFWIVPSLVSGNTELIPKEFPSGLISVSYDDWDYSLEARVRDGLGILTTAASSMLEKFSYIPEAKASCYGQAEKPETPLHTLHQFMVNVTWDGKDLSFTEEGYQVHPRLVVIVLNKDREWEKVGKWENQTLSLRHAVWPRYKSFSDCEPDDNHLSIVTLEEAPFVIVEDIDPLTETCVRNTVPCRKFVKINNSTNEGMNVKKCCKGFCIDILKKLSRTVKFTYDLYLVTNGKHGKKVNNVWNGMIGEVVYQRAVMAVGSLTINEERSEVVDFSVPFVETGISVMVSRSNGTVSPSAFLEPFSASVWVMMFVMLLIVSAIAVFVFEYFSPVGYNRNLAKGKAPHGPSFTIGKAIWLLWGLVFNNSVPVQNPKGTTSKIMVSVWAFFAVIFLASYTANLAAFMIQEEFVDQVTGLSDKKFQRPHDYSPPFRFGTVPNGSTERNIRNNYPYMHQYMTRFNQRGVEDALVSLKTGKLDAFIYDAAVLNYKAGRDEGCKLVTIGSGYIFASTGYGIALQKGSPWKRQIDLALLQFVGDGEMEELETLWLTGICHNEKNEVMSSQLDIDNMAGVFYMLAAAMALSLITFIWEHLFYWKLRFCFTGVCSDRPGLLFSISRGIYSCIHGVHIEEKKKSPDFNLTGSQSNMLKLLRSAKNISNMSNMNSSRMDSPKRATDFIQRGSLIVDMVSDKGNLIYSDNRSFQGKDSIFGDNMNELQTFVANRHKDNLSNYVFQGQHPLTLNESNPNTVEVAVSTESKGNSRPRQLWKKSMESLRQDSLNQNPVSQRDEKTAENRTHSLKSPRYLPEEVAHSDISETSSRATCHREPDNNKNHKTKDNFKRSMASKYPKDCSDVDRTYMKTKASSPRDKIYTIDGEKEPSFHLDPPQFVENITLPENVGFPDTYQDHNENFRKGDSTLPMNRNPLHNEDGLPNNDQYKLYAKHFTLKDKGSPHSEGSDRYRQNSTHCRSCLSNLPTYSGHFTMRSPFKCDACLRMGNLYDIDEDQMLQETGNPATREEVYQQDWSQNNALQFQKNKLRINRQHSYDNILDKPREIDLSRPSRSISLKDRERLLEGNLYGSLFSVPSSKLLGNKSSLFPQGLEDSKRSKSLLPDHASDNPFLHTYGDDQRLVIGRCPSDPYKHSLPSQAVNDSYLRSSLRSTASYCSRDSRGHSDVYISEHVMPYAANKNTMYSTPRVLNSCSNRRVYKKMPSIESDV

As to `O=c1c(-c2ccc(O)cc2)coc2cc(O)cc(O)c12` [genistein], the inhibition at 100 µM was 20 ± 1.4% in test [1] and 26 ± 2% in test [2].

Take `O=c1c(-c2ccc(O)cc2)coc2cc(O)ccc12` [daidzein, 4′,7-dihydroxyisoflavone]: the “% of control current at 100 μM” value in test [3] came to 68 ± 1.6.

With `CN[C@H](CC(=O)O)C(=O)O` [NMDA], the figures for the EC50 in test [4] and in test [5] were 14 ± 1.3 µM and 44 ± 5.6 µM, respectively.
